Test results: patent publication US6358885B1, “Substituted phenylheterocyclic herbicides” (Mississippi State University, priority 1992, dated 2002)

Columns and labels:
velvetleaf [1] = assay: Test B preemergence/postemergence greenhouse plant response rating 0 to 10; format: in vivo, Abutilon theophrasti; conditions: 0 to 10 scale
Summary of the method: (§1)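 Planted seeds are treated preemergence with compound dissolved in a non-phytotoxic solvent, while postemergence applications go onto plants of two to eighteen cm. Plants stay in the greenhouse twelve to sixteen days and are then rated visually relative to controls.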

cheatgrass = assay: as above; format: in vivo, Bromus secalinus; conditions: for Plant response rating, Cheatgrass: 0 to 10 scale
Summary of the method: as §1

cotton = assay: as above; format: in vivo, Gossypium hirsutum; conditions: for Plant response rating, Cotton: 0 to 10 scale
Summary of the method: as §1

barley = assay: Test C preemergence/postemergence greenhouse plant response rating 0 to 100; format: in vivo, Hordeum vulgare; conditions: POSTEMERGENCE; for Plant response rating Barley Igri: 0 to 100 scale
Summary of the method: (§2)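 Compounds in non-phytotoxic solvent went onto sandy loam before emergence (seeded one day earlier) or onto plants at the one-to-four leaf stage. Duck salad was treated via flood water (~2.5 cm, maintained) over silt loam.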

umbrella sedge = assay: Test C flood test plant response rating 0 to 100; format: in vivo, Cyperus difformis; conditions: for Plant response rating Umbrella sedge: flood test species listed under POSTEMERGENCE, 0 to 100 scale
Source text: The compounds evaluated in this test were formulated in a non-phytoxic solvent and applied to the soil surface before plant seedlings emerged (preemergence application), to water that covered the soil surface (flood application), and to plants that were in the one-to-four leaf stage (postemergence application). A sandy loam soil was used for the preemergence and postemergence tests, while a silt loam soil was used in the flood test. Water depth was approximately 2.5 cm for the flood test and was maintained at this level for the duration of the test. Plant species in the preemergence and postemergence tests consisted of barley (Hordeum vulgare), bedstraw (Galium aparine), blackgrass (Alopecurus myosuroides), chickweed (Stellaria media), corn (Zea mays), cotton (Gossypium hirsutum), crabgrass (Digitaria sanguinalis), downy brome (Bromus tectorum), giant foxtail (Setaria faberii), lambsquarters (Chenopodium album), morningglory (Ipomoea hederacea), pigweed ([…]), rape (Brassica napus), ryegrass (Lolium multiflorum), sorghum (Sorghum bicolor), soybean (Glycine max), speedwell (Veronica persica), sugar beet (Beta vulgaris), velvetleaf (Abutilon theophrasti), wheat (Triticum aestivum), wild buckwheat (Polygonum convolvulus), and wild oat (Avena fatua). All plant species were planted one day before application of the compound for the preemergence portion-of this test. Plantings of these species were adjusted to produce plants of appropriate size for the post-emergence portion of the test. […] All plant species were grown using normal greenhouse practices. Visual evaluations of injury expressed on treated plants, when compared to untreated controls, were recorded approximately fourteen to twenty one days after application of the test compound. […] A dash (-) response means no test result.

soybean [2] = assay: Test B preemergence/postemergence greenhouse plant response rating 0 to 10; format: in vivo, Glycine max; conditions: 0 to 10 scale
Summary of the method: as §1

morningglory = assay: Test C preemergence/postemergence greenhouse plant response rating 0 to 100; format: in vivo, Ipomoea hederacea; conditions: POSTEMERGENCE; for Plant response rating, Morningglory: 0 to 100 scale
Summary of the method: as §2

sugar beet = assay: as above; format: in vivo, Beta vulgaris; conditions: POSTEMERGENCE; for Plant response rating, Sugar beet: 0 to 100 scale
Summary of the method: as §2

velvetleaf [3] = assay: as above; format: in vivo, Abutilon theophrasti; conditions: POSTEMERGENCE; for Plant response rating, Velvetleaf: 0 to 100 scale
Summary of the method: as §2

wild buckwheat = assay: Test B preemergence/postemergence greenhouse plant response rating 0 to 10; format: in vivo, Polygonum convolvulus; conditions: 0 to 10 scale
Summary of the method: as §1

rice = assay: as above; format: in vivo, Oryza sativa; conditions: 0 to 10 scale
Summary of the method: as §1

corn = assay: Test C preemergence/postemergence greenhouse plant response rating 0 to 100; format: in vivo, Zea mays; conditions: POSTEMERGENCE; for Plant response rating, Corn: 0 to 100 scale
Summary of the method: as §2

purple nutsedge = assay: Test B preemergence/postemergence greenhouse plant response rating 0 to 10; format: in vivo, Cyperus rotundus; conditions: 0 to 10 scale
Summary of the method: as §1

lambsquarters [4] = assay: as above; format: in vivo, Chenopodium album; conditions: 0 to 10 scale
Summary of the method: as §1

lambsquarters [5] = assay: Test C preemergence/postemergence greenhouse plant response rating 0 to 100; format: in vivo, Chenopodium album; conditions: POSTEMERGENCE; for Plant response rating Lambsquarters: 0 to 100 scale
Summary of the method: as §2

soybean [6] = assay: as above; format: in vivo, Glycine max; conditions: POSTEMERGENCE; for Plant response rating, Soybean: 0 to 100 scale
Summary of the method: as §2

rape = assay: as above; format: in vivo, Brassica napus; conditions: POSTEMERGENCE; for Plant response rating, Rape: 0 to 100 scale
Summary of the method: as §2

sorghum = assay: as above; format: in vivo, Sorghum bicolor; conditions: POSTEMERGENCE; for Plant response rating, Sorghum: 0 to 100 scale
Summary of the method: as §2

With COc1cc(-c2nn3c(c2Cl)CCCC3)c(F)cc1Cl [Compound 29] the “Plant response rating, Velvetleaf” value (velvetleaf [1]; POSTEMERGENCE, Rate 50 g/ha) was 8, the “Plant response rating, Velvetleaf” value (velvetleaf [1]; PREEMERGENCE, Rate 50 g/ha) was 10 and the “Plant response rating, Velvetleaf” value (velvetleaf [1]; Rate 200 g/ha, POSTEMERGENCE) was 10. The “Plant response rating, Velvetleaf” value (velvetleaf [1]; Rate 200 g/ha, PREEMERGENCE) was 10, the “Plant response rating (0 to 10 scale), Cheatgrass” value (cheatgrass; POSTEMERGENCE, Rate 50 g/ha) was 4 and the “Plant response rating, Cheatgrass” value (cheatgrass; POSTEMERGENCE, Rate 200 g/ha) was 8. For the same compound, the “Plant response rating, Cheatgrass” value (cheatgrass; PREEMERGENCE, Rate 50 g/ha) was 5, the “Plant response rating, Cheatgrass” value (cheatgrass; Rate 200 g/ha, PREEMERGENCE) was 8 and the “Plant response rating (0 to 10 scale), Cotton” value (cotton; POSTEMERGENCE, Rate 50 g/ha) was 10. For the same compound, the “Plant response rating, Cotton” value (cotton; POSTEMERGENCE, Rate 200 g/ha) was 10, the “Plant response rating, Cotton” value (cotton; PREEMERGENCE, Rate 50 g/ha) was 1 and the “Plant response rating, Cotton” value (cotton; Rate 200 g/ha, PREEMERGENCE) was 7. For the same compound, the “Plant response rating Barley Igri” value (barley; 62 g/ha) was 60, the “Plant response rating Barley Igri” value (barley; 250 g/ha) was 90 and the “Plant response rating (0 to 100), Barley Igri” value (barley; Rate 4 g/ha) was 20. For the same compound, the “Plant response rating (0 to 100), Barley Igri” value (barley; Rate 16 g/ha) was 40, the “Plant response rating (0 to 100), Umbrella sedge” value (umbrella sedge; POSTEMERGENCE section, flood test, Rate 4 g/ha) was 20 and the “Plant response rating (0 to 100), Umbrella sedge” value (umbrella sedge; Rate 16 g/ha, under POSTEMERGENCE head (flood test species)) was 30. The “Plant response rating Umbrella sedge” value (umbrella sedge; 62 g/ha) was 90, the “Plant response rating Umbrella sedge” value (umbrella sedge; 250 g/ha) was 95 and the “Plant response rating, Soybean” value (soybean [2]; POSTEMERGENCE, Rate 50 g/ha) was 8. The “Plant response rating, Soybean” value (soybean [2]; PREEMERGENCE, Rate 50 g/ha) was 1, the “Plant response rating, Soybean” value (soybean [2]; Rate 200 g/ha, POSTEMERGENCE) was 9 and the “Plant response rating, Soybean” value (soybean [2]; Rate 200 g/ha, PREEMERGENCE) was 5. The “Plant response rating, Morningglory” value (morningglory; 62 g/ha) was 80, the “Plant response rating, Morningglory” value (morningglory; 250 g/ha) was 100 and the “Plant response rating (0 to 100), Morningglory” value (morningglory; Rate 4 g/ha) was 70. The “Plant response rating (0 to 100), Morningglory” value (morningglory; Rate 16 g/ha) was 80, the “Plant response rating, Sugar beet” value (sugar beet; 62 g/ha) was 100 and the “Plant response rating, Sugar beet” value (sugar beet; 250 g/ha) was 100. For the same compound, the “Plant response rating (0 to 100), Sugar beet” value (sugar beet; Rate 16 g/ha) was 90, the “Plant response rating, Velvetleaf” value (velvetleaf [3]; 62 g/ha) was 100 and the “Plant response rating, Velvetleaf” value (velvetleaf [3]; 250 g/ha) was 100. The “Plant response rating (0 to 100), Velvetleaf” value (velvetleaf [3]; Rate 4 g/ha) was 50, the “Plant response rating (0 to 100), Velvetleaf” value (velvetleaf [3]; Rate 16 g/ha) was 100 and the “Plant response rating, Wild buckwheat” value (wild buckwheat; POSTEMERGENCE, Rate 50 g/ha) was 10. For the same compound, the “Plant response rating, Wild buckwheat” value (wild buckwheat; PREEMERGENCE, Rate 50 g/ha) was 8, the “Plant response rating, Wild buckwheat” value (wild buckwheat; Rate 200 g/ha, POSTEMERGENCE) was 10 and the “Plant response rating, Wild buckwheat” value (wild buckwheat; Rate 200 g/ha, PREEMERGENCE) was 10. The “Plant response rating, Rice” value (rice; POSTEMERGENCE, Rate 50 g/ha) was 4, the “Plant response rating, Rice” value (rice; PREEMERGENCE, Rate 50 g/ha) was 0 and the “Plant response rating, Rice” value (rice; Rate 200 g/ha, POSTEMERGENCE) was 7. The “Plant response rating, Rice” value (rice; Rate 200 g/ha, PREEMERGENCE) was 2, the “Plant response rating, Corn” value (corn; 62 g/ha) was 40 and the “Plant response rating, Corn” value (corn; 250 g/ha) was 50. For the same compound, the “Plant response rating (0 to 100), Corn” value (corn; Rate 4 g/ha) was 20, the “Plant response rating (0 to 100), Corn” value (corn; Rate 16 g/ha) was 20 and the “Plant response rating, Nutsedge” value (purple nutsedge; POSTEMERGENCE, Rate 50 g/ha) was 4. The “Plant response rating, Nutsedge” value (purple nutsedge; PREEMERGENCE, Rate 50 g/ha) was 0, the “Plant response rating, Nutsedge” value (purple nutsedge; Rate 200 g/ha, POSTEMERGENCE) was 4 and the “Plant response rating, Nutsedge” value (purple nutsedge; Rate 200 g/ha, PREEMERGENCE) was 0. The “Plant response rating, Lambsquarter” value (lambsquarters [4]; POSTEMERGENCE, Rate 50 g/ha) was 10, the “Plant response rating, Lambsquarter” value (lambsquarters [4]; PREEMERGENCE, Rate 50 g/ha) was 10 and the “Plant response rating, Lambsquarter” value (lambsquarters [4]; Rate 200 g/ha, POSTEMERGENCE) was 10. The “Plant response rating, Lambsquarter” value (lambsquarters [4]; Rate 200 g/ha, PREEMERGENCE) was 10, the “Plant response rating Lambsquarters” value (lambsquarters [5]; 62 g/ha) was 100 and the “Plant response rating Lambsquarters” value (lambsquarters [5]; 250 g/ha) was 100. For the same compound, the “Plant response rating (0 to 100), Lambsquarters” value (lambsquarters [5]; Rate 4 g/ha) was 30, the “Plant response rating (0 to 100), Lambsquarters” value (lambsquarters [5]; Rate 16 g/ha) was 60 and the “Plant response rating, Soybean” value (soybean [6]; 62 g/ha) was 60. For the same compound, the “Plant response rating, Soybean” value (soybean [6]; 250 g/ha) was 100, the “Plant response rating (0 to 100), Soybean” value (soybean [6]; Rate 4 g/ha) was 10 and the “Plant response rating (0 to 100), Soybean” value (soybean [6]; Rate 16 g/ha) was 50. The “Plant response rating, Rape” value (rape; 62 g/ha) was 100, the “Plant response rating, Rape” value (rape; 250 g/ha) was 100 and the “Plant response rating (0 to 100), Rape” value (rape; Rate 4 g/ha) was 90. The “Plant response rating (0 to 100), Rape” value (rape; Rate 16 g/ha) was 100, the “Plant response rating, Sorghum” value (sorghum; 62 g/ha) was 20 and the “Plant response rating, Sorghum” value (sorghum; 250 g/ha) was 50. The “Plant response rating (0 to 100), Sorghum” value (sorghum; Rate 4 g/ha) was 0 and the “Plant response rating (0 to 100), Sorghum” value (sorghum; Rate 16 g/ha) was 0.
